One assay has as its system MV4-11 cells. Kind of assay: Oncology cell growth assay (3-day proliferation, CellTiter-Glo). In kind it is cell-based. The note with it: Homo sapiens, MV4-11, 72 h, AML cell line MV4-11, 72 hours, compounds grouped by IC50 range, read-out: MV4-11 IC50 (inhibition of proliferation, gIC50). A digest of the protocol: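 Compounds were serially diluted 3-fold in DMSO, giving final well concentrations from 10 down to 0.0045 μM. MV4-11 cells were then seeded at 3000 cells/well in RPMI 1640 with 10% FBS and incubated 72 hours. CellTiter-Glo signal was measured and gIC50 obtained by four-parameter logistic regression.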

The target in the next assay is T1, BRD4 BD2 (Homo sapiens, UniProt O60885).
T1 construct: made in house
Kind of assay: AlphaScreen binding assay, BRD4 Bromodomain 2. The procedure, abridged: (§1)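 Compound dilution series were mixed with His-tagged BRD4 bromodomain and biotinylated tetra-acetylated H4 (1-21) peptide at pH 7.3 (BD1 and peptide at 50 nM, BD2 and peptide at 100 nM). Donor and acceptor beads were then added, and plates were equilibrated at least 1 h before reading. IC50 values were fitted with a four-parameter logistic model.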
On the technique in general: Alpha assays give light when donor and acceptor beads are brought close together.

The next assay concerns the target T2, BRD4 BD1 (Homo sapiens, UniProt O60885).
T2 construct: made in house
Kind of assay: AlphaScreen binding assay, BRD4 Bromodomain 1. A digest of the protocol: as §1

Molecules are shown by their SMILES.

`CC(=O)N1c2ccc(-c3cnn(C4CC4)c3)cc2N(C(=O)Oc2cccc3ccccc23)C[C@@H]1C` [Example I-265]: the figures for the IC50 in the assay on MV4-11 cells, at BRD4 BD2 and on BRD4 BD1 were more than 500 nM, less than 50 nM and 1000 to 10000 nM, respectively.
The matching figures for `CC(=O)N1c2ccc(-c3cnn(C4CC4)c3)cc2N(C(=O)Oc2ccc(F)c(C)c2)C[C@@H]1C` [Example I-266]: 100 to 500 nM, less than 50 nM and 100 to 1000 nM.
Taken in the same sequence, the figures for `CC(=O)N1c2ccc(-c3cnn(C4CC4)c3)cc2N(C(=O)Oc2ccc(Cl)cc2C)C[C@@H]1C` [Example I-267] were 100 to 500 nM, less than 50 nM and 100 to 1000 nM.
The matching figures for `CC(=O)N1c2ccc(-c3ccc(S(=O)(=O)NC4CC4)cc3)cc2N(C(=O)c2ccco2)C[C@@H]1C` [Example I-268]: less than 100 nM, less than 50 nM and 100 to 1000 nM.
For `CCCn1cc(-c2ccc3c(c2)N(C(=O)c2ccco2)C[C@H](C)N3C(C)=O)cn1` [Example I-269], the IC50 is 100 to 500 nM in the assay with MV4-11 cells, less than 50 nM on BRD4 BD2 and 100 to 1000 nM on BRD4 BD1.
Taken in the same sequence, the figures for `CC(=O)N1c2ccc(-c3ccc(S(=O)(=O)NC(C)C)cc3)cc2N(C(=O)c2ccco2)C[C@@H]1C` [Example I-274] were 100 to 500 nM, less than 50 nM and 1000 to 10000 nM.
For `CC(=O)N1c2ccc(-c3ccc(S(=O)(=O)N4CCOCC4)cc3)cc2N(C(=O)c2ccco2)C[C@@H]1C` [Example I-275], the IC50 was 100 to 500 nM with MV4-11 cells, 50 to 500 nM at BRD4 BD2 and 1000 to 10000 nM at BRD4 BD1.
As to `CC(=O)N1c2ccc(-c3ccc(OCCN(C)C)cc3)cc2N(C(=O)c2ccco2)C[C@@H]1C` [Example I-276], the values for the IC50 in the assay with MV4-11 cells, on BRD4 BD2 and at BRD4 BD1 were less than 100 nM, less than 50 nM and 1000 to 10000 nM, respectively.
The matching figures for `CC(=O)N1c2ccc(-c3ccc(S(=O)(=O)N(C)C)cc3)cc2N(C(=O)c2ccco2)C[C@@H]1C` [Example I-277]: 100 to 500 nM, less than 50 nM and 1000 to 10000 nM.
Consider `CC(=O)N1c2ccc(-c3ccc(S(=O)(=O)N4CCN(C)CC4)cc3)cc2N(C(=O)c2ccco2)C[C@@H]1C` [Example I-278], for which the IC50 in the assay on MV4-11 cells is 100 to 500 nM; on BRD4 BD2, less than 50 nM; on BRD4 BD1, 1000 to 10000 nM.
The matching figures for `CC(=O)N1c2ccc(-c3ccc(NS(C)(=O)=O)cc3)cc2N(C(=O)c2ccco2)C[C@@H]1C` [Example I-279]: less than 100 nM, less than 50 nM and 100 to 1000 nM.
With `CC(=O)N1c2ccc(-c3ccc(NC(N)=O)cc3)cc2N(C(=O)c2ccco2)C[C@@H]1C` [Example I-280], the IC50 in the assay on MV4-11 cells is 100 to 500 nM; at BRD4 BD2 it was less than 50 nM; on BRD4 BD1 it was 1000 to 10000 nM.
The matching figures for `CC(=O)N1c2ccc(-c3ccc(S(N)(=O)=O)cc3)cc2N(C(=O)c2ccco2)C[C@@H]1C` [Example I-281]: 100 to 500 nM, less than 50 nM and 1000 to 10000 nM.
The matching figures for `CC(=O)N1c2ccc(-c3ccc(C(=O)N4CCCC4)cc3)cc2N(C(=O)c2ccco2)C[C@@H]1C` [Example I-282]: 100 to 500 nM, less than 50 nM and 1000 to 10000 nM.
Consider `CC(=O)N1c2ccc(-c3ccc(C(=O)N4CCOCC4)cc3)cc2N(C(=O)c2ccco2)C[C@@H]1C` [Example I-283], for which the IC50 in the assay on MV4-11 cells is 100 to 500 nM; on BRD4 BD2 it was less than 50 nM; at BRD4 BD1, 1000 to 10000 nM.
Turning to `CC(=O)N1c2ccc(-c3ccc(NC(=O)N(C)C)cc3)cc2N(C(=O)c2ccco2)C[C@@H]1C` [Example I-284], the values for the IC50 in the assay on MV4-11 cells, at BRD4 BD2 and at BRD4 BD1 were 100 to 500 nM, less than 50 nM and 1000 to 10000 nM, respectively.
The matching figures for `CC(=O)N1c2ccc(-c3ccc(NC(=O)N4CCOCC4)cc3)cc2N(C(=O)c2ccco2)C[C@@H]1C` [Example I-285]: 100 to 500 nM, less than 50 nM and 1000 to 10000 nM.
As for `CC(=O)N1c2ccc(-c3ccc(S(=O)(=O)N4CCCC4)cc3)cc2N(C(=O)c2ccco2)C[C@@H]1C` [Example I-286], the IC50 in the assay with MV4-11 cells was less than 100 nM; at BRD4 BD2, more than 500 nM; on BRD4 BD1 it was 100 to 1000 nM.
The matching figures for `CC(=O)N1c2ccc(-c3ccc(NS(=O)(=O)C4CC4)cc3)cc2N(C(=O)c2ccco2)C[C@@H]1C` [Example I-287]: less than 100 nM, less than 50 nM and 100 to 1000 nM.
`CC(=O)N1c2ccc(-c3ccc(S(=O)(=O)C(C)C)cc3)cc2N(C(=O)c2ccco2)C[C@@H]1C` [Example I-288]: the IC50 with MV4-11 cells was 100 to 500 nM; on BRD4 BD2 it was less than 50 nM; on BRD4 BD1, 1000 to 10000 nM.
Consider `CC(=O)N1c2ccc(-c3ccc(S(=O)(=O)N4CCC4)cc3)cc2N(C(=O)c2ccco2)C[C@@H]1C` [Example I-289], for which the IC50 in the assay with MV4-11 cells was 100 to 500 nM; at BRD4 BD2, less than 50 nM; on BRD4 BD1, 100 to 1000 nM.
Taken in the same sequence, the figures for `CC(=O)N1c2ccc(-c3ccc(C(=O)NCCO)cc3)cc2N(C(=O)c2ccco2)C[C@@H]1C` [Example I-290] were 100 to 500 nM, less than 50 nM and 1000 to 10000 nM.
Taken in the same sequence, the figures for `CC(=O)N1c2ccc(-c3ccc(S(=O)(=O)C4CC4)cc3)cc2N(C(=O)c2ccco2)C[C@@H]1C` [Example I-291] were 100 to 500 nM, less than 50 nM and 100 to 1000 nM.
With `CC(=O)N1c2ccc(-c3ccc(C(=O)NC4CC4)cc3)cc2N(C(=O)c2ccco2)C[C@@H]1C` [Example I-292], the IC50 in the assay with MV4-11 cells is 100 to 500 nM; at BRD4 BD2, more than 500 nM; at BRD4 BD1, 1000 to 10000 nM.
For the molecule `CC(=O)N1c2ccc(-c3ccc(S(=O)(=O)NCCO)cc3)cc2N(C(=O)c2ccco2)C[C@@H]1C` [Example I-293], the IC50 with MV4-11 cells was 100 to 500 nM; on BRD4 BD2, less than 50 nM; on BRD4 BD1, 1000 to 10000 nM.
As to `CC(=O)N1c2ccc(-c3ccc(S(C)(=O)=O)cc3)cc2N(C(=O)OC(C)C)C[C@@H]1C` [Example I-294], the IC50 with MV4-11 cells was 100 to 500 nM; at BRD4 BD2, less than 50 nM; on BRD4 BD1, 100 to 1000 nM.
Taken in the same sequence, the figures for `CC(=O)N1c2ccc(-c3ccc(N)nc3)cc2N(C(=O)c2ccco2)C[C@@H]1C` [Example I-295] were 100 to 500 nM, less than 50 nM and 1000 to 10000 nM.
On to `CC(=O)N1c2ccc(-c3ccc4c(c3)CCN4S(C)(=O)=O)cc2N(C(=O)c2ccco2)C[C@@H]1C` [Example I-299], for which the results for the IC50 in the assay on MV4-11 cells, on BRD4 BD2 and on BRD4 BD1 were 100 to 500 nM, 50 to 500 nM and 100 to 1000 nM, respectively.
In the case of `CC(=O)N1c2ccc(-c3cnn(CCS(C)(=O)=O)c3)cc2N(C(=O)OC(C)C)C[C@@H]1C` [Example I-303], the IC50 in the assay with MV4-11 cells was 100 to 500 nM; on BRD4 BD2 it was 50 to 500 nM; at BRD4 BD1 it was less than 100 nM.
The matching figures for `CC(=O)N1c2ccc(-c3cnn(CC(N)=O)c3)cc2N(C(=O)OC(C)C)C[C@@H]1C` [Example I-304]: 100 to 500 nM, 50 to 500 nM and 100 to 1000 nM.
The matching figures for `CC(=O)N1c2ccc(-c3cnn(CC(=O)N(C)C)c3)cc2N(C(=O)OC(C)C)C[C@@H]1C` [Example I-305]: 100 to 500 nM, 50 to 500 nM and 100 to 1000 nM.
Regarding `CC(=O)N1c2ccc(-c3cnn(CCN4CCOCC4)c3)cc2N(C(=O)OC(C)C)C[C@@H]1C` [Example I-306], the IC50 in the assay on MV4-11 cells fell in the range of 100 to 500 nM; at BRD4 BD2, 50 to 500 nM; at BRD4 BD1 it was 100 to 1000 nM.
Take `CC(=O)N1c2ccc(-c3cnn(C4CCOCC4)c3)cc2N(C(=O)OC(C)C)C[C@@H]1C` [Example I-307]: the values for the IC50 in the assay on MV4-11 cells, at BRD4 BD2 and on BRD4 BD1 were 100 to 500 nM, 50 to 500 nM and 100 to 1000 nM, respectively.
Taken in the same sequence, the figures for `CC(=O)N1c2ccc(-c3cnn(CC4CC4)c3)cc2N(C(=O)OC(C)C)C[C@@H]1C` [Example I-308] were 100 to 500 nM, 50 to 500 nM and 100 to 1000 nM.
Turning to `CC(C)OC(=O)N1C[C@H](C)N(C(=O)C2CC2)c2ccc(-c3cnn(CCS(C)(=O)=O)c3)cc21` [Example I-309], the values for the IC50 in the assay on MV4-11 cells, at BRD4 BD2 and at BRD4 BD1 were more than 500 nM, 50 to 500 nM and 100 to 1000 nM, respectively.
Regarding `CC(C)OC(=O)N1C[C@H](C)N(C(=O)C2CC2)c2ccc(-c3cnn(CC(N)=O)c3)cc21` [Example I-310], the IC50 was more than 500 nM in the assay on MV4-11 cells, 50 to 500 nM at BRD4 BD2 and 100 to 1000 nM at BRD4 BD1.
In the case of `CC(C)OC(=O)N1C[C@H](C)N(C(=O)C2CC2)c2ccc(-c3cnn(CCN4CCOCC4)c3)cc21` [Example I-312], the values for the IC50 in the assay on MV4-11 cells, at BRD4 BD2 and on BRD4 BD1 were 100 to 500 nM, 50 to 500 nM and 100 to 1000 nM, respectively.
The matching figures for `CC(C)OC(=O)N1C[C@H](C)N(C(=O)C2CC2)c2ccc(-c3cnn(C4CCOCC4)c3)cc21` [Example I-313]: 100 to 500 nM, 50 to 500 nM and 100 to 1000 nM.
Taken in the same sequence, the figures for `COCCn1cc(-c2ccc3c(c2)N(C(=O)OC(C)C)C[C@H](C)N3C(=O)C2CC2)cn1` [Example I-314] were 100 to 500 nM, 50 to 500 nM and 100 to 1000 nM.
Taken in the same sequence, the figures for `CC(C)OC(=O)N1C[C@H](C)N(C(=O)C2CC2)c2ccc(-c3cnn(CCO)c3)cc21` [Example I-315] were 100 to 500 nM, 50 to 500 nM and 100 to 1000 nM.

The values above are taken from patent US10703764B2, “Benzopiperazine compositions as BET bromodomain inhibitors” (FORMA Therapeutics, Inc., priority 2013, dated 2020).
